Measured values as given in ChEMBL document CHEMBL1833909, “Synthesis and structure-activity relationships of 4,5-fused pyridazinones as histamine H₃ receptor antagonists” (Bioorg Med Chem Lett, 2011).

Key:
[1] = biological target: Histamine H3 receptor (Rattus norvegicus, UniProt Q9QYN8); assay: Displacement of [3H]-NAMH from rat histamine H3 receptor expressed in CHO cells; assay type: cell-based
[2] = biological target: T1, Histamine H3 receptor (Homo sapiens, UniProt Q9Y5N1); assay: biochemical
T1 sequence (Q9Y5N1 whole entry): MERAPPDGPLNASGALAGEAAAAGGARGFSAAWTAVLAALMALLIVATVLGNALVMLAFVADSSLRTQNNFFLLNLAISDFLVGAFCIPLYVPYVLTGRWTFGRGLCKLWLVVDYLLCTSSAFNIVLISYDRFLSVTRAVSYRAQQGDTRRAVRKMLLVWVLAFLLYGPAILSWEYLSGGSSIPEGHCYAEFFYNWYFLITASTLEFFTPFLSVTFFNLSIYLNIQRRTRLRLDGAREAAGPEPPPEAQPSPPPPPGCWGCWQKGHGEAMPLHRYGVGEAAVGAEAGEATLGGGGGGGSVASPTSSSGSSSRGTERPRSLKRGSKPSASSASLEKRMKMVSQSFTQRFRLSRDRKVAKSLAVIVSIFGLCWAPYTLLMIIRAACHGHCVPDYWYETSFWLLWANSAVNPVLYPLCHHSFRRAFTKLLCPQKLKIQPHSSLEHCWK

[3] = biological target: Cytochrome P450 3A4 (Homo sapiens, UniProt P08684); assay: Inhibition of CYP3A4; assay type: ADME
Cytochrome P450 3A4, sequence (P08684 whole entry): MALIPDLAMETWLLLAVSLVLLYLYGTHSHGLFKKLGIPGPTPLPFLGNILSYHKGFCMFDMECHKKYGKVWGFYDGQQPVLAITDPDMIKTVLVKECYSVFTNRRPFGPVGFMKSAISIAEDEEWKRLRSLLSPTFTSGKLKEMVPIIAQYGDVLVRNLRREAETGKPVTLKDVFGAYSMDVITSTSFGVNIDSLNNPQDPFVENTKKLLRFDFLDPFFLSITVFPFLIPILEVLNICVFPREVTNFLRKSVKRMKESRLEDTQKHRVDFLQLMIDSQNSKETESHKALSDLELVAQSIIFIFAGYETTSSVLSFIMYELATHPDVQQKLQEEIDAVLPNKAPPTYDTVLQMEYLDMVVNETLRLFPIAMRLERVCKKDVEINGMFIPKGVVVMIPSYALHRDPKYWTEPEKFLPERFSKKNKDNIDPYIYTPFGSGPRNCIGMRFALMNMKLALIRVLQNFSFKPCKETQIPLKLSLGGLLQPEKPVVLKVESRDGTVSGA

[4] = biological target: Cytochrome P450 2C9 (Homo sapiens, UniProt P11712); assay: Inhibition of CYP2C9; assay type: ADME
Cytochrome P450 2C9, sequence (P11712 whole entry): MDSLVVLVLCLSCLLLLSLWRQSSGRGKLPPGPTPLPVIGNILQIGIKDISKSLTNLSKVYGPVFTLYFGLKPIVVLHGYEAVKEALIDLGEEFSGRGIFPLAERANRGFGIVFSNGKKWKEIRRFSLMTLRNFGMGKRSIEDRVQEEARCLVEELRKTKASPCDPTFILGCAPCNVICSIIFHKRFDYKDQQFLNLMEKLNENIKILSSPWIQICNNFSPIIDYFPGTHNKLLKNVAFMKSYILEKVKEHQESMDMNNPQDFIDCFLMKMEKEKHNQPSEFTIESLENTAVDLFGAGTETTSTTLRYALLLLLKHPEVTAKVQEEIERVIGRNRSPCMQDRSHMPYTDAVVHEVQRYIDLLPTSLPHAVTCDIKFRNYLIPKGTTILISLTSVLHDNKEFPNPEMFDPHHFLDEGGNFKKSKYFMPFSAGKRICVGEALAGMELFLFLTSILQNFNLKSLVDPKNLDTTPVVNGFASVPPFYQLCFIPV

[5] = biological target: Cytochrome P450 2D6 (Homo sapiens, UniProt P10635); assay: Inhibition of CYP2D6; assay type: ADME
Cytochrome P450 2D6, sequence (P10635 whole entry): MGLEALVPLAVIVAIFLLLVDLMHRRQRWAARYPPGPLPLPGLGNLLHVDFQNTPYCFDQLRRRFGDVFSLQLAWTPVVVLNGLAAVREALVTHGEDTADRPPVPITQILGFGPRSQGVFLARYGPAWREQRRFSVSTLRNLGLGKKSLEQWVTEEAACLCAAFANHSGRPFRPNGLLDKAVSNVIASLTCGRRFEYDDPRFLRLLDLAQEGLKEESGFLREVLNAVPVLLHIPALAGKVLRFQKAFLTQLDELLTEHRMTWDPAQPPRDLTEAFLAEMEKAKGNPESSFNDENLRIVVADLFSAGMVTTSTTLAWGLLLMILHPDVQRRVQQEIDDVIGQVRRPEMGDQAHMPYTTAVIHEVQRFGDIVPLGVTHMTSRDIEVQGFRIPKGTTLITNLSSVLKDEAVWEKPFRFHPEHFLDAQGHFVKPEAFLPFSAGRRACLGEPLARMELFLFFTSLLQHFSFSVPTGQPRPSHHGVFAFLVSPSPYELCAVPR

[6] = biological target: Cytochrome P450 2C19 (Homo sapiens, UniProt P33261); assay: Inhibition of CYP2C19; assay type: ADME
Cytochrome P450 2C19, sequence (P33261 whole entry): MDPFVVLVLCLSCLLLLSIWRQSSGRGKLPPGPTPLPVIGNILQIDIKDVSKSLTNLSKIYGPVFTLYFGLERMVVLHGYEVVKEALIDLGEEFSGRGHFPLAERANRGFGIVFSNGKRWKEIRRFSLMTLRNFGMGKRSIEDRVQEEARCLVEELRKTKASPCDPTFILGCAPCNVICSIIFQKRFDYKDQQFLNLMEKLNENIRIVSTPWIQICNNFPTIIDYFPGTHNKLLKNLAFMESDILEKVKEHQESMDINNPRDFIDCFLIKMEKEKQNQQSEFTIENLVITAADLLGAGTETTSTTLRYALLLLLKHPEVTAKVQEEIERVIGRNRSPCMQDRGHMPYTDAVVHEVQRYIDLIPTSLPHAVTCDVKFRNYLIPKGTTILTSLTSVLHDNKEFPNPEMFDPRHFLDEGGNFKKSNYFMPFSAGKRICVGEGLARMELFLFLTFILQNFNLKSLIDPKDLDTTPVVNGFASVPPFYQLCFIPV

[7] = biological target: T2, Cytochrome P450 1A2 (Homo sapiens, UniProt P05177); assay: Inhibition of CYP1A2; assay type: ADME
T2 sequence (P05177 whole entry): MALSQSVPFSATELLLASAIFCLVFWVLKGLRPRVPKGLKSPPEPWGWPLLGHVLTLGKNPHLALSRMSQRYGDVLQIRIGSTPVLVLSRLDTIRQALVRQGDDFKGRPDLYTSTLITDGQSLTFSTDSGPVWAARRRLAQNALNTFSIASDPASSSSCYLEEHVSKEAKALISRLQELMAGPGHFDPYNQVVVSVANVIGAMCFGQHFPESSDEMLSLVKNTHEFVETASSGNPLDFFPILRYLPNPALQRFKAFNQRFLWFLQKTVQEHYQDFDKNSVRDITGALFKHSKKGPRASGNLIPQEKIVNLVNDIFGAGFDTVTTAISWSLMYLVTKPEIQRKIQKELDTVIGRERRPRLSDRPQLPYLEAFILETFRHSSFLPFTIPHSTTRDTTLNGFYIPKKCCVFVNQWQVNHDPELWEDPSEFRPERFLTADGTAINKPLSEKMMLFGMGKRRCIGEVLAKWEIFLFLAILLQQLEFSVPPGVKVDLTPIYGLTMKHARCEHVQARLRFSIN

[8] = Half life in rat at 1 mg/kg, iv; assay type: ADME, organism-based; set-up: dose 1 mg/kg, route intravenous; settings: in vivo
[9] = Half life in human liver microsomes; assay type: ADME, Microsome
[10] = AUC in rat at 1 mg/kg, iv; assay type: ADME, organism-based; set-up: dose 1 mg/kg, route intravenous; settings: plasma
[11] = Half life in rat liver microsomes; assay type: ADME, Microsome
[12] = Half life in dog liver microsomes; assay type: ADME, Canis lupus familiaris, Microsome
[13] = AUC in rat at 5 mg/kg, po; assay type: ADME, organism-based; set-up: dose 5 mg/kg, route oral; settings: plasma
[14] = Oral bioavailability in rat at 5 mg/kg; assay type: ADME, organism-based; settings: in vivo
[15] = Cmax in rat at 5 mg/kg, po; assay type: ADME, organism-based; set-up: dose 5 mg/kg, route oral; settings: in vivo
[16] = Ratio of drug level in brain to plasma in ip dosed rat after 1 hr; assay type: ADME, organism-based; settings: read-out: BPR
[17] = Clearance in rat at 1 mg/kg, iv; assay type: ADME, organism-based; set-up: dose 1 mg/kg, route intravenous; settings: in vivo
[18] = Volume of distribution in rat at 1 mg/kg, iv; assay type: ADME, organism-based; set-up: dose 1 mg/kg, route intravenous; settings: in vivo
[19] = biological target: T1, Histamine H3 receptor; assay: Antagonist activity at recombinant human histamine H3 receptor assessed as inhibition of RAMH-induced [35S]GTPgammaS binding; assay type: functional
[20] = biological target: T1, Histamine H3 receptor; assay: Inverse agonist activity at human histamine H3 receptor assessed as decrease of basal activity of [35S]GTPgammaS binding; assay type: functional
[21] = biological target: Histamine H1 receptor (Homo sapiens) (UniProt P35367); assay: Inhibition of human histamine H1 receptor at 10 uM
Histamine H1 receptor (Homo sapiens), sequence (P35367 whole entry): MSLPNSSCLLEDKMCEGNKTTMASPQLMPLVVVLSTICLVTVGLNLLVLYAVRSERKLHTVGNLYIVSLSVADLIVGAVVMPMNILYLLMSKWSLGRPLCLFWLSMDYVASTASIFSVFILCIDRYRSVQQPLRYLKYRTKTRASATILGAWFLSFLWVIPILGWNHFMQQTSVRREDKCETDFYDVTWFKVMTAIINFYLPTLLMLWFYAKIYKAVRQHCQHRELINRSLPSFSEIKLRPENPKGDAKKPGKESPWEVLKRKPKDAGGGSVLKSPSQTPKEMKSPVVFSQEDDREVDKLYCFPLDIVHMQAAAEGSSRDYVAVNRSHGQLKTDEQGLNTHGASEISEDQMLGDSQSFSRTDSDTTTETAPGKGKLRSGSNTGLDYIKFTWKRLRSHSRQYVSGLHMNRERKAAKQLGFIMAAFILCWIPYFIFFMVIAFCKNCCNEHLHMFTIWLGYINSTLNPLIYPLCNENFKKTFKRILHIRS

[22] = biological target: Sodium-dependent noradrenaline transporter (Homo sapiens) (UniProt P23975); assay: Inhibition of norepinephrine transporter at 10 uM
[23] = biological target: Histamine H4 receptor (Homo sapiens) (UniProt Q9H3N8); assay: Inhibition of human histamine H4 receptor at 10 uM
[24] = Inhibition of dihydropyridine site of calcium channel at 10 uM
[25] = biological target: hERG (KCNH2) (Homo sapiens, UniProt Q12809); assay: Inhibition of human ERG at 10 uM by patch clamp assay
hERG (KCNH2), sequence (Q12809 whole entry): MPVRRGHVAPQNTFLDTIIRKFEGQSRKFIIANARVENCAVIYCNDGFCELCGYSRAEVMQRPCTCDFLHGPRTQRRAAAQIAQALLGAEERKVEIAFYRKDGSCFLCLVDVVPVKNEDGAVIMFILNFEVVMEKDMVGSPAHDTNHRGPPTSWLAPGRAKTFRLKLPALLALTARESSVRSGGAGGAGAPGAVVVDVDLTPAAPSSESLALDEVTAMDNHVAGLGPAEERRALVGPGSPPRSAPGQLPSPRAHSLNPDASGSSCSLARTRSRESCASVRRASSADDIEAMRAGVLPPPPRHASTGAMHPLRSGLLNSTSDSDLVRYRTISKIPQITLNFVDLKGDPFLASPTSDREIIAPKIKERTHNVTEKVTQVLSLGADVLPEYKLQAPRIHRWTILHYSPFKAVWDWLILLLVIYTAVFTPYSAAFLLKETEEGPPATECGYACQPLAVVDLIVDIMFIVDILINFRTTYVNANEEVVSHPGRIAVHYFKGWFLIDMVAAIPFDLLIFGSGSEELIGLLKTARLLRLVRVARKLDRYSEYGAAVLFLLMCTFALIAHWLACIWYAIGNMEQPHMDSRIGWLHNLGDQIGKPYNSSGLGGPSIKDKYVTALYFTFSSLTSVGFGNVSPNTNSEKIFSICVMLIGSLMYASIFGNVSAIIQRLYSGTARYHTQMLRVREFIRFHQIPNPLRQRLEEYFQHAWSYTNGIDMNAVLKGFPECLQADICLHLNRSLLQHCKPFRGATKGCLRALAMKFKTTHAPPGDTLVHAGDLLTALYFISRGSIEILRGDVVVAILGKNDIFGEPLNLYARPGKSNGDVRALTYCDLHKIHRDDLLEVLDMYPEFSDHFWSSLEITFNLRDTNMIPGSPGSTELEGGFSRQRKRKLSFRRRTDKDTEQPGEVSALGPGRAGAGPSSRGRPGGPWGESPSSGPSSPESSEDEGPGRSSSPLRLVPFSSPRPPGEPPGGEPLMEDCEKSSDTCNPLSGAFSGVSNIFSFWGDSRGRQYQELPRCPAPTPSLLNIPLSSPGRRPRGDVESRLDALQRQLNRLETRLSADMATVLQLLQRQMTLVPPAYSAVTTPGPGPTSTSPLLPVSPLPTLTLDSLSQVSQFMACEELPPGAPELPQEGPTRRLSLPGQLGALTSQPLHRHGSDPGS

[26] = biological target: Histamine H2 receptor (Homo sapiens) (UniProt P25021); assay: Inhibition of human histamine H2 receptor at 10 uM
Histamine H2 receptor (Homo sapiens), sequence (P25021 whole entry): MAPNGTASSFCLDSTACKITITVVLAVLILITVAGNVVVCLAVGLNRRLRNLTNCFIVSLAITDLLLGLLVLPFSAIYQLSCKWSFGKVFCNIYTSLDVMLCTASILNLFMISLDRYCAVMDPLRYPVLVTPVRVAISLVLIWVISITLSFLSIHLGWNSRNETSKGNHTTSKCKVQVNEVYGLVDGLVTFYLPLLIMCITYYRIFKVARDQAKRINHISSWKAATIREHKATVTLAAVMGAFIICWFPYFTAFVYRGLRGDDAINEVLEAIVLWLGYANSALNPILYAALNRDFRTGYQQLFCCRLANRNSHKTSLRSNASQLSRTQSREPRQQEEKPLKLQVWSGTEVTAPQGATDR

Histamine H3 receptor (Rattus norvegicus, UniProt Q9QYN8), sequence (Q9QYN8 whole entry): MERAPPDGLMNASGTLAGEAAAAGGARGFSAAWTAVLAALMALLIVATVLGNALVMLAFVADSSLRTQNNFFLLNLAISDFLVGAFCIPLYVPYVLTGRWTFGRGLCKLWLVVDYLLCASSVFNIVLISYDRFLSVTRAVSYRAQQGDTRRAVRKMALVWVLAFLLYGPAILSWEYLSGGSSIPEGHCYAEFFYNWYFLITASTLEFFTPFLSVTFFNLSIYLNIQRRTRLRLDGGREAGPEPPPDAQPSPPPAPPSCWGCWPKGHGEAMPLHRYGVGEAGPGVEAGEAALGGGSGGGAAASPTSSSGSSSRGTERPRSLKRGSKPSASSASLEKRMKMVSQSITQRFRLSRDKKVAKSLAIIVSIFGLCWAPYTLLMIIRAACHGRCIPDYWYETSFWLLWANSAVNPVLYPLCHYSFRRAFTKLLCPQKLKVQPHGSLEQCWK

Ki [1] [nM] | Ki [2] [nM] | IC50 [3] [nM] | IC50 [4] [nM] | IC50 [5] [nM] | IC50 [6] [nM] | IC50 [7] [nM] | Structure (SMILES) | also measured
167 | 23 | – | – | – | – | – | CCN(CC)CCCOc1ccc(-c2nn(C(C)C)c(=O)c3ccsc23)cc1 | –
7 | 4 | – | – | – | – | – | CC(C)n1nc(-c2ccc(OCCCN3CCCC3)cc2)c2sccc2c1=O | –
19 | 1.9 | – | – | – | – | – | CC(C)n1nc(-c2ccc(OCCCN3CCCCC3)cc2)c2sccc2c1=O | –
1.8 | 1.4 | – | – | – | – | – | Cn1nc(-c2ccc(OCCCN3CCCCCC3)cc2)c2ccccc2c1=O | –
12 | 1.5 | – | – | – | – | – | CCCn1nc(-c2ccc(OCCCN3CCC[C@H]3C)cc2)c2sccc2c1=O | –
23 | 11 | – | – | – | – | – | O=c1c2ccccc2c(-c2ccc(OCCCN3CCCCC3)cc2)nn1Cc1ccc(Cl)cc1 | –
1.2 | 0.8 | > 30000 | > 30000 | > 30000 | > 30000 | > 30000 | C[C@@H]1CCCN1CCCOc1ccc(-c2nn(C)c(=O)c3c2CCCC3)cc1 | –
2 | 0.4 | > 30000 | > 30000 | > 30000 | > 30000 | > 30000 | C[C@@H]1CCCN1CCCOc1ccc(-c2nn(C)c(=O)c3c2CCC3)cc1 | half-life [8]: 15.6 min; AUC [10]: 182 ng·h/mL; Kb [19]: 0.2 nM; EC50 [20]: 0.8 nM; inhibition [21]: < 30%; inhibition [22]: 60%; AUC [13]: 5.82 ng·h/mL; bioavailability [14]: < 1%; Cmax [15]: 7 ng/mL; Kp at 1 h [16]: 1.2; clearance [17]: 163 mL/min/kg; inhibition [23]: < 30%; Vd [18]: 3.35 L/kg; inhibition [24]: 68%; inhibition at 10 µM [25]: 23%; inhibition [26]: < 30%
4.3 | 0.5 | > 30000 | > 30000 | > 30000 | > 30000 | > 30000 | Cn1nc(-c2ccc(OCCCN3CCCCC3)cc2)c2c(c1=O)CCC2 | Kb [19]: 0.2 nM; EC50 [20]: 0.8 nM

Continued, compound first:

Structure (SMILES) | Ki [1] [nM] | Ki [2] [nM] | IC50 [3] [nM] | IC50 [4] [nM] | IC50 [5] [nM] | IC50 [6] [nM] | IC50 [7] [nM] | also measured
COC[C@H]1CCCN1CCCOc1ccc(-c2nn(C(C)C)c(=O)c3ccsc23)cc1 | > 3000 | 1120 | – | – | – | – | – | –
Cn1nc(-c2ccc(OCCCN3CCCC3)cc2)c2ccccc2c1=O | 3.6 | 1.7 | – | – | – | – | – | –
C[C@@H]1CCCN1CCCOc1ccc(-c2nn(Cc3ccc(Cl)cc3)c(=O)c3ccccc23)cc1 | 12 | 4.6 | – | – | – | – | – | –
CN1N=C(c2ccc(OCCCN3CCCCC3)cc2)C2CCCC2C1=O (configuration not stated) | 9.4 | 2.3 | > 30000 | > 30000 | > 30000 | > 30000 | > 30000 | –
Cn1nc(-c2ccc(OCCCN3CCCCC3)cc2)c2ccccc2c1=O | 9 | 0.8 | > 30000 | > 30000 | > 30000 | > 30000 | > 30000 | half-life [8]: 18 min; half-life [9]: > 40 min; AUC [10]: 402 ng·h/mL; half-life [11]: > 40 min; half-life [12]: > 40 min; AUC [13]: 14 ng·h/mL; bioavailability [14]: < 1%; Cmax [15]: 20 ng/mL; Kp at 1 h [16]: 2.98; clearance [17]: 52 mL/min/kg; Vd [18]: 1.36 L/kg
CCCn1nc(-c2ccc(OCCCN3CCC(C)CC3)cc2)c2sccc2c1=O | 58 | 23 | – | – | – | – | – | –
C[C@@H]1CCCN1CCCOc1ccc(-c2nn(C)c(=O)c3ccccc23)cc1 | 3.8 | 0.8 | – | – | – | – | – | –
Cn1nc(-c2ccc(OCCCN3CCCCC3)cc2)c2c(c1=O)CCCC2 | 4.5 | 1.5 | > 30000 | > 30000 | > 30000 | > 30000 | > 30000 | –
CC(C)n1nc(-c2ccc(OCCCN3CCC[C@H]3C)cc2)c2sccc2c1=O | 8.3 | 2.6 | > 30000 | > 30000 | > 30000 | > 30000 | > 30000 | half-life [8]: 18 min; AUC [10]: 160 ng·h/mL; bioavailability [14]: < 1%; Cmax [15]: < 5 ng/mL; Kp at 1 h [16]: 4.07; clearance [17]: 117 mL/min/kg; Vd [18]: 2.98 L/kg
Cn1nc(-c2ccc(OCCN3CCCCC3)cc2)c2ccccc2c1=O | > 1000 | 84 | – | – | – | – | – | –
C[C@@H]1CCCN1CCCOc1ccc(-c2nn(Cc3ccc(Cl)cc3)c(=O)c3ccsc23)cc1 | 12 | 2.4 | – | – | – | – | – | –
C[C@@H]1CCCN1CCCOc1ccc(C2=NN(C)C(=O)C3CCCC23)cc1 (some centres not stated) | 4.7 | 1.6 | > 30000 | > 30000 | > 30000 | > 30000 | > 30000 | –
O=c1c2ccsc2c(-c2ccc(OCCCN3CCCCC3)cc2)nn1Cc1ccc(Cl)cc1 | 143 | 48 | – | – | – | – | – | –
COC[C@@H]1CCCN1CCCOc1ccc(-c2nn(C(C)C)c(=O)c3ccsc23)cc1 | 1170 | 50 | – | – | – | – | – | –
